Measured values published in the CheMixHub viscosity set.
Several values for one entry are separate records, joined by “and”; a condition that tells them apart may be missing. Identical values can stand only once.

Assays:
[1] = xn = mol fraction of the nth substance listed
[2] = 101 kPa

CC=CC(=O)OCC + CCO
viscosity [mPa·s], [1], 101 kPa
Settings | x1 = 0.0991 | x1 = 0.1985 | x1 = 0.2994 | x1 = 0.3961 | x1 = 0.5006 | x1 = 0.6 | x1 = 0.6968 | x1 = 0.7816 | x1 = 0.8996
293.15 K | 1.026 | 0.929 | 0.9257 | 0.9219 | 0.878 | 0.8293 | 0.8016 | 0.8351 | 0.8122
298.15 K | 0.9334 | 0.8523 | 0.8465 | 0.8404 | 0.8061 | 0.7663 | 0.7402 | 0.7648 | 0.7535
303.15 K | 0.8498 | 0.7812 | 0.7751 | 0.7739 | 0.7411 | 0.7061 | 0.6855 | 0.7052 | 0.7
313.15 K | 0.7166 | 0.6615 | 0.6607 | 0.6588 | 0.6372 | 0.6091 | 0.5958 | 0.6134 | 0.6108
323.15 K | 0.6156 | 0.5747 | 0.5702 | 0.5686 | 0.5537 | 0.5363 | 0.5284 | 0.5414 | 0.5401

OC[C@H]1O[C@H](O[C@H]2O[C@H](CO)[C@@H](O)[C@H](O)[C@H]2O)[C@H](O)[C@@H](O)[C@@H]1O + O
[1], 298.15 K, 101 kPa
Settings | viscosity [mPa·s]
x1 = 0.0009 | 0.935
x1 = 0.001798 | 0.982
x1 = 0.002695 | 1.032
x1 = 0.00359 | 1.084
x1 = 0.004484 | 1.139
x1 = 0.005375 | 1.197

[Cl-].[Cl-].[Cl-].[Cl-].[Sn+4]
[2]
Settings | viscosity
293.15 K | 0.951 mPa·s and 0.927 mPa·s
298.15 K | 0.919 mPa·s and 0.8145 mPa·s
313.15 K | 0.715 mPa·s and 0.758 mPa·s
323.15 K | 0.668 mPa·s and 0.683 mPa·s and 0.683 mPa·s

[Cl-].[Cl-].[Cl-].[Cl-].[Sn+4] + COc1ccccc1
viscosity [mPa·s], [1], 101 kPa
Settings | x2 = 0.5074 | x2 = 0.6728 | x2 = 0.782 | x2 = 0.8238 | x2 = 0.864 | x2 = 0.9558
293.15 K | 0.932 | 0.958 | 1.01 | 1.04 | 1.07 | 1.1
313.15 K | 0.724 | 0.732 | 0.746 | 0.765 | 0.779 | 0.811

CCC(C)CC + COC(C)(C)C
[1], 298.15 K, 101.33 kPa
Settings | viscosity [mPa·s]
x2 = 0.0876 | 0.2925
x2 = 0.1993 | 0.2945
x2 = 0.2983 | 0.2972
x2 = 0.3943 | 0.3008
x2 = 0.5016 | 0.3049
x2 = 0.5934 | 0.3089
x2 = 0.6935 | 0.3139
x2 = 0.7963 | 0.3199
x2 = 0.8984 | 0.3268

CN(c1ccccc1)c1ccccc1
[2]
Settings | viscosity
293.15 K | 7.25 mPa·s
293.25 K | 7.22 mPa·s
303.15 K | 5.13 mPa·s
313.15 K | 3.84 mPa·s and 3.835 mPa·s

CCCCCC[N+]1(C)CCOCC1.[Br-] + OCCOCCO
[1], 100 kPa, x1 = 0.2003
Settings | viscosity [mPa·s]
293.15 K | 88.12
298.15 K | 66.83
303.15 K | 51.75
308.15 K | 40.85
313.15 K | 32.85
318.15 K | 26.75
323.15 K | 22.17

CC=CC(=O)OCC
[2]
Settings | viscosity [mPa·s]
293.15 K | 0.8184
298.15 K | 0.7576
303.15 K | 0.7053
313.15 K | 0.6154
323.15 K | 0.5471

O=C1CCCN1 + CO
[1], 298.15 K, 100 kPa
Settings | viscosity
x1 = 0.0098 | 0.568 mPa·s
x1 = 0.0194 | 0.587 mPa·s
x1 = 0.0295 | 0.641 mPa·s
x1 = 0.0392 | 0.657 mPa·s
x1 = 0.0499 | 0.687 mPa·s
x1 = 0.059 | 0.671 mPa·s
x1 = 0.0688 | 0.691 mPa·s
x1 = 0.078 | 0.708 mPa·s
x1 = 0.0883 | 0.755 mPa·s
x1 = 0.0973 | 0.759 mPa·s
x1 = 0.0988 | 0.906 mPa·s
x1 = 0.2022 | 1.133 mPa·s
x1 = 0.2963 | 1.432 mPa·s
x1 = 0.3984 | 1.937 mPa·s
x1 = 0.4592 | 2.346 mPa·s
x1 = 0.5694 | 3.304 mPa·s
x1 = 0.6844 | 4.749 mPa·s
x1 = 0.7834 | 6.52 mPa·s
x1 = 0.8988 | 9.529 mPa·s and 9.56 mPa·s
x1 = 0.9076 | 9.83 mPa·s
x1 = 0.9213 | 10.34 mPa·s
x1 = 0.9308 | 10.66 mPa·s
x1 = 0.9383 | 10.97 mPa·s
x1 = 0.9496 | 11.39 mPa·s
x1 = 0.9615 | 11.92 mPa·s
x1 = 0.9741 | 12.35 mPa·s
x2 = 0.0101 | 13.03 mPa·s

O=S=O + CCCCCCC
[1], 298.15 K, 101 kPa
Settings | viscosity [mPa·s]
x1 = 0.0265 | 0.3767
x1 = 0.0489 | 0.3719

O=S=O + CC(C)=O
[1], 298.15 K, 101 kPa
Settings | viscosity [mPa·s]
x1 = 0.04866 | 0.3122
x1 = 0.1662 | 0.3313
x1 = 0.2057 | 0.3365
x1 = 0.2466 | 0.3415
x1 = 0.2858 | 0.343
x1 = 0.4007 | 0.3471

O=C1CCCN1 + CC(C)CO
Settings | viscosity [mPa·s]
[1], 303.15 K, 101 kPa, x1 = 0.9753 | 10.15

O=C1CCCN1 + CN1CCCC1=O
[1], 298.15 K, 100 kPa
Settings | viscosity [mPa·s]
x1 = 0.0188 | 1.759
x1 = 0.0298 | 1.79
x1 = 0.0397 | 1.827
x1 = 0.0507 | 1.835
x1 = 0.065 | 1.874
x1 = 0.0793 | 1.963
x1 = 0.097 | 1.992
x1 = 0.1004 | 1.999
x1 = 0.1498 | 2.168
x1 = 0.1993 | 2.356
x1 = 0.2495 | 2.568
x1 = 0.3001 | 2.808
x1 = 0.3497 | 3.067
x1 = 0.3986 | 3.361
x1 = 0.4492 | 3.704
x1 = 0.4994 | 4.091
x1 = 0.5493 | 4.53
x1 = 0.5989 | 5.022
x1 = 0.6497 | 5.608
x1 = 0.6992 | 6.263
x1 = 0.7487 | 7.017
x1 = 0.7986 | 7.914
x1 = 0.8494 | 8.966
x1 = 0.8984 | 10.14
x1 = 0.918 | 10.67
x1 = 0.9287 | 10.99
x1 = 0.9394 | 11.33
x1 = 0.959 | 12.01
x1 = 0.9695 | 12.29
x1 = 0.9798 | 12.64
x2 = 0.0111 | 12.96
